From patent US5800838A, “Composition that inhibits or destroys at least one unicellular living organism containing fluorine F- and Lithium li+” (priority 1987, dated 1998)
Read-outs that look alike come from different tables or passages of the source.

Legend:
Candida albicans = test: MIC on hospital strains of Candida albicans; format: cell-based; settings: read-out: MIC of the primary active principle
Method: (§1) The methodology employed is that described by Professor F. CATALAN, P. SEDNAOUI, A. MILOVANOVIC et al., Institut A. FOURNIER, PARIS.
With the same methodology, trials were performed on hospital strains of Candida albicans: […]

[1] = test system: Escherichia coli CNCM 54 127; settings: cited from earlier work
DUCREY's bacillus = test: MIC with respect to DUCREY's bacillus; format: cell-based, DUCREY's Haemophilus; settings: read-out: MIC of the primary active principle
Method: as §1
The trials were performed on 8 wild-type strains of DUCREY's Haemophilus. The following results were recorded with respect to these strains: […]

Trichomonas vaginalis = test: Number of strains inhibited / MIC, same methodology as example 4; format: cell-based; settings: for MIC: Trichomonas vaginalis
Method: (§2) In the first trial, the sample of bactericidal substance was incorporated directly in the specific culture edium of the microorganism. A concentration series of the bactericidal substance was prepared in the geometric ratio of 2, from 400 μg/ml to 1.56 μg/ml. The cell concentration used in the seeding of the Petri dishes was […]. A 24-hour incubation was performed at 37° C. and then, for each wild-type strain tested, the concentration of primary principle destroying all the microorganisms (see method of Professor F. CATALAN et al., Institut A. FOURNIER, PARIS) was determined. The trail was performed on 32 wild-type strains of Gardnerella vaginalis originating from hospital sources and with benzalkonium chloride and then nonoxinol 9 as active principles, and with sodium fluoride NaF at a concentration of 1 mg/l and then lithium fluoride LiF at a concentration of 1 mg/l as activating principles.
The same methodology as in example 4 was used on 15 strains of Trichomonas vaginalis.

[2] = test system: Streptococcus faecalis CNCM 5 855; settings: cited from earlier work
spermatozoa [3] = settings: in the initial 1 millilitre, cited from earlier work
spermatozoa [4] = test: SANDERS-CRAMER total spermicidal test according to IPPF standards; format: cell-based; settings: with 1 ml solution containing 0.0001% lithium fluoride; in the initial 1 millilitre
[5] = test system: Pseudomonas aeruginosa CNCM A 22; test: MIC, French standard NF T 72-150, AFNOR strain; format: cell-based; settings: in the presence of LiF at 1 mg/l
Method: (§3) French standard NF T 72-150, March 1981, was followed by the trials carried out. The trials were performed on the strains defined by the AFNOR standard.
(§4) The results obtained on the strains defined by the AFNOR standard for benzalkonium chloride alone and for benzalkonium chloride with the addition of 1 mg/l of sodium fluoride were already given in unpublished European Patent Application 86/402,716.4, and have been recorded again.

[6] = test system: Streptococcus faecalis CNCM 5 855; test: MIC, French standard NF T 72-150, AFNOR strain; format: cell-based; settings: in the presence of LiF at 1 mg/l
Method: as §3, §4

[7] = test system: Escherichia coli CNCM 54 127; test: MIC, French standard NF T 72-150, AFNOR strain; format: cell-based; settings: in the presence of LiF at 1 mg/l
Method: as §3, §4

[8] = test system: Mycobacterium smegmatis CNCM 7 326; test: MIC, French standard NF T 72-150, AFNOR strain; format: cell-based; settings: in the presence of LiF at 1 mg/l
Method: as §3, §4

[9] = test system: Staphylococcus aureus Oxford strain CNCM 53 154; test: MIC, French standard NF T 72-150, AFNOR strain; format: cell-based; settings: in the presence of LiF at 1 mg/l
Method: as §3, §4

[10] = test system: Mycobacterium smegmatis CNCM 7 326; settings: cited from earlier work
Gardnerella vaginalis = test: Number of strains inhibited, bactericidal substance incorporated in culture medium (first trial); format: cell-based; settings: for MBC: Gardnerella vaginalis, 24 h, read-out: totally lethal concentration; for number of strains inhibited out of the 32 tested: NaF or LiF 1 mg/l where added
Method: as §2

MAC COY cells = settings: mouse
Aspergillus niger = test: MIC on hospital strains of Aspergillus niger; format: cell-based; settings: read-out: MIC of the primary active principle
Excerpt: as §1
With the same methodology, the following results were observed on hospital strains of Aspergillus niger: […]

[11] = in the presence of LiF at 0.96 mg/l
[12] = in the presence of NaF at 1 mg/l

## CCCCCCCCCCCCCC[N+](C)(C)Cc1ccccc1.[Cl-] [benzalkonium chloride, myristyldimethylbenzylammonium chloride]
Candida albicans; alone
  MIC: 50 mg/L
Candida albicans; in the presence of LiF at 0.96 mg/l and of KATHON CG preservative at 0.234/mgl
  MIC: 2 mg/L
Candida albicans; [11]
  MIC: 135 mg/L
[1]; alone
  MIC of benzalkonium chloride: 6.57 mg/L
[1]; [12]
  MIC of benzalkonium chloride: 3 mg/L
DUCREY's bacillus; in the presence of LiF (1 mg/l)
  MIC: 65 mg/L
DUCREY's bacillus; in the presence of NaF (1 mg/l)
  MIC: 85 mg/L
DUCREY's bacillus
  MIC: 100 mg/L
Trichomonas vaginalis; alone
  MIC: 25 mg/L
Trichomonas vaginalis; in the presence of LiF
  MIC: 6.25 mg/L
Trichomonas vaginalis; benzalkonium chloride 1.56 mg/l, LiF 1 mg/l where added
  number of strains inhibited out of the 15 tested: 1
Trichomonas vaginalis; benzalkonium chloride 3.125 mg/l, LiF 1 mg/l where added
  number of strains inhibited out of the 15 tested: 3
Trichomonas vaginalis; benzalkonium chloride 6.25 mg/l, LiF 1 mg/l where added
  number of strains inhibited out of the 15 tested: 9
Trichomonas vaginalis; benzalkonium chloride 12.5 mg/l
  number of strains inhibited out of the 15 tested: 13
Trichomonas vaginalis; benzalkonium chloride 25 mg/l
  number of strains inhibited out of the 15 tested: 15
[2]; alone
  MIC of benzalkonium chloride: 4 mg/L
[2]; [12]
  MIC of benzalkonium chloride: 3.6 mg/L
Spermatozoa [3]; alone
  MIC of benzalkonium chloride: 0.006%
Spermatozoa [3]; with 1 ml solution containing 0.0001% F^- anions
  MIC of benzalkonium chloride: 0.002%
Spermatozoa [4]
  MIC of benzalkonium chloride: 0.0009%
[5]
  MIC of benzalkonium chloride: 15 mg/L
[6]
  MIC of benzalkonium chloride: 2.8 mg/L
[7]
  MIC of benzalkonium chloride: 2 mg/L
[8]
  MIC of benzalkonium chloride: 22 mg/L
[9]
  MIC of benzalkonium chloride: 1.1 mg/L
[10]; alone
  MIC of benzalkonium chloride: 30 mg/L
[10]; [12]
  MIC of benzalkonium chloride: 26 mg/L
Gardnerella vaginalis; alone
  MBC: 50 mg/L
Gardnerella vaginalis; in the presence of LiF
  MBC: 12.5 mg/L
Gardnerella vaginalis; in the presence of NaF
  MBC: 25 mg/L
Gardnerella vaginalis; primary active principle 1.56 mg/l
  number of strains inhibited out of the 32 tested: 0
Gardnerella vaginalis; primary active principle 3.125 mg/l
  number of strains inhibited out of the 32 tested: 0
Gardnerella vaginalis; primary active principle 6.25 mg/l
  number of strains inhibited out of the 32 tested: 1
Gardnerella vaginalis; primary active principle 12.5 mg/l
  number of strains inhibited out of the 32 tested: 28
Gardnerella vaginalis; primary active principle 25 mg/l
  number of strains inhibited out of the 32 tested: 31
Gardnerella vaginalis; primary active principle 50 mg/l
  number of strains inhibited out of the 32 tested: 32
MAC COY cells
  threshold of cytotoxic activity: 0.01%
Aspergillus niger; alone
  MIC: 50 mg/L
Aspergillus niger; in the presence of LiF at 0.96 mg/l and of KATHON CG preservative at 0.234 mg/l
  MIC: 100 mg/L
Aspergillus niger; [11]
  MIC: 135 mg/L
